Among the data in PubChem BioAssay AID1963838 (Molecular Pharmacology Branch, DTP, NCI, 2024) are viability, T/C and IC50 values, retold here.

SMILES strings stand for the structures. pIC50: −log10 of the molar value. Where “and” joins values, the source holds several entries; their conditions need not be identical. Equal entries are not always repeated.

In the test the test system is 855422-203-R-J1-PDC complex spheroid viability. As to the kind of experiment: Anticancer human tumor 855422-203-R-J1-PDC patient-derived bladder carcinoma cell line growth inhibition [POLQ]. The following applies: for viability, T/C: stronger effect = lower value. How it is done: Multicellular complex tumor spheroid response to Polymerase (POL) inhibitors (novobiocin, ART-558, RP6685) in combination with a variety of drugs and investigational agents in selected tumor cell lines
The POL inhibitors (novobiocin, ART-558, and RP6685) were evaluated both individually and in combination with standard of care and investigational anticancer small molecules within a complex spheroid model of solid tumors. . Complex spheroids include a stromal component modeled by human endothelial cells (HUVEC) and fibroblasts modeled by human mesenchymal stem cells (MSCs). The concentration ranges selected for each drug and investigational agent were based upon clinically achievable concentrations if the clinical Cmax of the agent was known.
Compounds. The drugs and investigational agents: novobiocin (NSC847541), ART-558 (NSC835418), RP-6685 (NSC848927), peposertib (NSC802822), ceralasertib (NSC780249), elimusertib (NSC800525), camonsertib (NSC841442), AZD-1390 (NSC803789), olaparib (NSC753686), talazoparib (NSC767125), rucaparib (NSC756644), sotorasib (NSC818433), MRTX-1133 (NSC836407), SN-38 (NSC673596), topotecan (NSC609699), epotoside (NSC141540), doxorubicin (NSC123127), gemcitabine (NSC613327), 5-fluorouracil (NSC19893), paclitaxel (NSC125973), vemurafenib (NSC761431), MSA-2 (NSC828583), SN-011 (NSC837082), adavosertib (NSC754352), prexasertib (NSC758257), carboplatin (NSC241240) and oxaliplatin (NSC266046), were obtained from the National Cancer Institute (NCI) Developmental Therapeutics Program Chemical Repository (21). The FDA-approved anticancer drug set is available from the Developmental Therapeutics Program at https://dtp.cancer.gov/organization/dscb/obtaining/. […] The stock solutions were prepared in dimethyl sulfoxide (DMSO, Sigma-Aldrich, St. Louis, MO, cat. D2650), except for the platinum compounds which were prepared in saline (Quality Biological, Gaithersburg, MD, cat. 114-055-101), at 800-fold the tested concentration and stored at -70 degrees C prior to their use. All drugs and investigational agents were tested over a range starting from a high concentration at or near the clinical Cmax and decreasing in half-log increments. If the clinical Cmax for an agent had not been determined, the highest concentration tested was 10 microM, except for SN-38, which was tested at a high concentration of 1 microM.
Cell Culture. All cells were maintained in an incubator at 37 degrees C and 5% CO2 with 95% humidity. The PDC lines were cultured according to standard operating procedures established by the NCI PDMR (https://pdmr.cancer.gov). Table 3 of the manuscript, lists the cell lines along with the number of the three cell types plated to form the mct-spheroids and media for tumor cell growth. After thawing, all PDC lines, except 997537-175-T-J1-PDC and 415267-285-R-J2-PDC, were cultured in Matrigel-coated flasks prepared with a working solution of 1X Ham's F-12 nutrient mix, without supplementation (Thermo Fisher Scientific, cat. 11765054), 100 U/mL penicillin-streptomycin (Thermo Fisher Scientific, cat. 15140122), and 2.5% Matrigel (Corning Inc., Corning, NY, cat. 354248) for the first three passages. The two PDC lines 997537-175-T-J1-PDC and 415267-285-R-J2-PDC were cultured on uncoated flasks. The 857933-349-R-J2-PDC line was cultured in 6C/Colon 1B media containing advanced DMEM/F-12 (Thermo Fisher Scientific, cat. 12634028), 10 mM HEPES (Thermo Fisher Scientific, cat. 15630080), 1X GlutaMAX supplement (Thermo Fisher Scientific, cat. 35050061), 0.1 mg/mL primocin (InvivoGen, San Diego, CA, cat. ant-pm-2), 10% defined fetal bovine serum, heat inactivated (HyClone Laboratories Inc., Logan, UT, cat. SH30070.03HI), 50% L-WRN conditioned media (ATCC, cat. CRL-3276), 1.25 mM N-Acetyl-L-cysteine (Sigma-Aldrich, cat. A9165), 10 mM nicotinamide (Sigma-Aldrich, cat. N0636), 1X B-27 supplement (Thermo Fisher Scientific, cat. 17504044), 1X N-2 supplement (Thermo Fisher Scientific, cat. […]

[1] abbreviates: compound alone, run of 01/19/2024.
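Also: spheroids exposed to compounds for seven days before readout.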

Broadly, the viability, T/C is the ratio of treated to control. In general, pIC50 refers to the negative decadic logarithm of the IC50, by convention in mol/L. As for `COc1cc(C2c3cc4c(cc3C(OC3OC5COC(C)OC5C(O)C3O)C3COC(=O)C23)OCO4)cc(OC)c1O` (centres undefined), the viability, T/C runs as follows: (compound 0.0316 µM) 99.8% and 116% and 97.3%; (compound 0.1 µM) 92.7% and 114% and 91%; (compound 0.316 µM) 31.5% and 78.4% and 34%; (compound 1 µM) 9.39% and 19.9% and 12.1%; (compound 3.16 µM) 7.03% and 8.72% and 9.59%; (compound 10 µM) 4.41% and 6.81% and 5.26%. Moreover, the pIC50 (curve of compound) was 6.65 and 6.26 and 6.64.

In the case of `COc1ccc([C@@H](O)c2cc(-c3ncnc4cc(N5CCOCC5)ccc34)c(F)cc2Cl)nn1`, the viability, T/C is 86.6% and 104% and 118% (compound 0.0316 µM); 103% and 107% and 96.5% (compound 0.1 µM); 94.5% and 103% and 109% (compound 0.316 µM); 87.2% and 91.5% and 88.8% (compound 1 µM); 60.9% and 109% and 69.5% (compound 3.16 µM); 32% and 58.2% and 37.4% (compound 10 µM). Moreover, the negative logarithm of the IC50 (pIC50) (curve of compound) is 5.31 and < 5.00 and 5.20.

As for `COc1cccc(OCCCN)c1-c1cc(Nc2cnc(C#N)cn2)n[nH]1`, the viability, T/C (compound 0.00316 µM) is 108% and 98.1% and 104%; the viability, T/C (compound 0.01 µM) was 86.8% and 138% and 132%; the viability, T/C (compound 0.0316 µM) is 12.2% and 23.8% and 37.9%; the viability, T/C (compound 0.1 µM) is 9.96% and 13.6% and 17.5%; the viability, T/C (compound 0.316 µM) was 5.57% and 7.75% and 6.55%; the viability, T/C (compound 1 µM) is 4.87% and 6.23% and 5.82%. For the same compound, under “curve of compound”, the pIC50 is 7.75 and 7.64 and 7.58.

With `COc1cccc2c1C(=O)c1c(O)c3c(c(O)c1C2=O)CC(O)(C(=O)CO)CC3OC1CC(N)C(O)C(C)O1` (centres undefined), the viability, T/C was 20.9% and 28.2% and 13.1% (compound 0.0316 µM); 9.22% and 14.2% and 10.2% (compound 0.1 µM); 3.11% and 2.95% and 2.47% (compound 0.316 µM); 0.45% and 0.73% and 0.38% (compound 1 µM); 0.69% and 0.96% and 0.43% (compound 3.16 µM); 3.06% and 2.86% and 1.27% (compound 10 µM). Moreover, the pIC50 (curve of compound) is more than 7.50.

With `Cc1cccc(N(C)C(=O)C2C(O)CCN2c2nc(C)cc(C(F)(F)F)c2C#N)c1` (centres undefined), the viability, T/C was 107% [middle of 13 runs] (compound 0.0316 µM); 106% [middle of 13 runs] (compound 0.316 µM); 102% [middle of 13 runs] (compound 1 µM); 102% [middle of 13 runs] (compound 3.16 µM); 103% [middle of 13 runs] (compound 10 µM). Further, the negative-log IC50 (pIC50) was less than 5.00 (compound alone, run of 01/08/2024) and less than 5.00 under setting [1].

For the compound `Cn1ncnc1[C@H]1c2n[nH]c(=O)c3cc(F)cc(c23)N[C@@H]1c1ccc(F)cc1`, the viability, T/C (compound 0.000316 µM) is 108% and 99.8% and 105%; the viability, T/C (compound 0.001 µM) is 97% and 116% and 97.1%; the viability, T/C (compound 0.00316 µM) was 108% and 105% and 111%; the viability, T/C (compound 0.01 µM) was 108% and 122% and 110%; the viability, T/C (compound 0.0316 µM) is 102% and 93.4% and 118%; the viability, T/C (compound 0.1 µM) is 96.6% and 134% and 88.6%. Also, where the note is “curve of compound”, the negative-log IC50 (pIC50) was less than 7.00.

Turning to `Nc1ccc(C#CCN(C(=O)Cc2ncc(C(F)(F)F)cc2C(F)(F)F)c2ccc(F)cc2)nn1`, the viability, T/C (compound 0.0316 µM) was 101% [middle of 13 runs]; the viability, T/C (compound 0.1 µM) is 104% [middle of 13 runs]; the viability, T/C (compound 0.316 µM) was 107% [middle of 13 runs]; the viability, T/C (compound 3.16 µM) was 95.7% [middle of 13 runs]; the viability, T/C (compound 10 µM) is 90.4% [middle of 13 runs]. Also, under setting [1], the negative logarithm of the IC50 (pIC50) is less than 5.00.

As to `Nc1ccn(C2OC(CO)C(O)C2(F)F)c(=O)n1` (centres undefined), the viability, T/C (compound 0.0316 µM) was 81.1% and 75.1% and 69.6%; the viability, T/C (compound 0.1 µM) is 41.7% and 19.3% and 37.9%; the viability, T/C (compound 0.316 µM) was 17.7% and 14.3% and 12.9%; the viability, T/C (compound 1 µM) was 13.3% and 13.5% and 11.3%; the viability, T/C (compound 3.16 µM) is 7.69% and 9.12% and 7.82%; the viability, T/C (compound 10 µM) was 6.31% and 7.6% and 6.51%. The negative-log IC50 (pIC50) (curve of compound) was 7.11 and 7.27 and 7.19.

In the case of `O=C(c1cc(Cc2n[nH]c(=O)c3ccccc23)ccc1F)N1CCN(C(=O)C2CC2)CC1`, the viability, T/C reads like this: (compound 0.0316 µM) 109% and 103% and 94%; (compound 0.1 µM) 107% and 106% and 112%; (compound 0.316 µM) 92.1% and 100% and 112%; (compound 1 µM) 108% and 103% and 98.3%; (compound 3.16 µM) 106% and 98.1% and 124%; (compound 10 µM) 82.5% and 70% and 121%. In addition, where the note is “curve of compound”, the pIC50 is less than 5.00.

Take `O=c1[nH]cc(F)c(=O)[nH]1`: the viability, T/C is, setting by setting: (compound 0.0316 µM) 116% and 95.4% and 99.2%; (compound 0.1 µM) 105% and 104% and 102%; (compound 0.316 µM) 61.8% and 118% and 55.4%; (compound 1 µM) 32.8% and 67% and 34.3%; (compound 3.16 µM) 29.6% and 40.2% and 26.3%; (compound 10 µM) 23.3% and 44.2% and 22.9%. For the setting “curve of compound”, the negative-log IC50 (pIC50) was 6.29 and 5.66 and 6.39.
